As usually defined, the IC50 is the midpoint of a concentration-inhibition curve. By EC50 is commonly meant the concentration needed to bring the measured effect to its halfway point.

The structures appear in SMILES notation.

The values below come from patent publication US12590062B2, “PD-1/PD-L1 inhibitors” (Gilead Sciences, Inc., priority 2017, dated 2026).

For one test, the target named is PD-1/PD-L1 (Homo sapiens, UniProt Q9NZQ7). In words: PD-1/PD-L1 biochemical protein-protein interaction assay (ALPHA). To be noted: 0.3 nM His tagged PD-L1, 2.5 nM biotinylated Fc-PD-1, 60 minutes at 25° C., read-out: IC50 PD-L1-PD-1 Alpha IC50-mono PD-L1-fcP-D1. It counts as binding. The method, boiled down: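 ALPHA bead proximity assay of extracellular domains: 0.3 nM His-PD-L1 with 2.5 nM biotinylated Fc-PD-1 in 25 mM Hepes pH 7.4, 150 mM NaCl, 3.4 mM EDTA, 0.005% Tween 20, 0.01% BSA, 60 min at 25 °C. Anti-His acceptor and streptavidin donor beads added; IC50 from four-parameter fit of signal loss.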

Another test deals with T1, PD-1/PD-L1 interaction (Homo sapiens, UniProt Q9NZQ7).
T1 construct: expressed in transfected cells; host or cells: CHO cells (aAPC-PD-L1) co-cultured with Jurkat cells overexpressing PD-1 and an NFAT-luciferase reporter
The experiment in a line: PD-1/PD-L1 NFAT reporter co-culture assay. It counts as cell-based. As to conditions: Jurkat PD-1 NFAT-luciferase cells co-cultured with aAPC-PD-L1 CHO cells, 6 hrs at 37° C.; read-out: EC50 NFAT Luciferase. The method, boiled down:
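Jurkat cells overexpressing PD-1 with NFAT-driven luciferase were mixed with compound in RPMI 1640/2% FBS and seeded onto overnight-plated CHO aAPC-PD-L1 cells expressing surface anti-CD3 and PD-L1. Co-culture ran 6 h at 37 °C; luminescence read with ONE-Glo; EC50 from four-parameter fit.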

Chain of PD-1/PD-L1 (Q9NZQ7 19-238 limits assumed): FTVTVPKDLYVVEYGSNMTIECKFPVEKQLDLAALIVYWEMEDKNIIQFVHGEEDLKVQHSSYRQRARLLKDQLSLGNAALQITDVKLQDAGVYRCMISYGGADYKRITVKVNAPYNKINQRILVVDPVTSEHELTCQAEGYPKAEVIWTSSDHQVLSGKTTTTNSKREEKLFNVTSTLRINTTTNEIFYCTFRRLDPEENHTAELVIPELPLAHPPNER
T1 sequence (Q9NZQ7 19-290): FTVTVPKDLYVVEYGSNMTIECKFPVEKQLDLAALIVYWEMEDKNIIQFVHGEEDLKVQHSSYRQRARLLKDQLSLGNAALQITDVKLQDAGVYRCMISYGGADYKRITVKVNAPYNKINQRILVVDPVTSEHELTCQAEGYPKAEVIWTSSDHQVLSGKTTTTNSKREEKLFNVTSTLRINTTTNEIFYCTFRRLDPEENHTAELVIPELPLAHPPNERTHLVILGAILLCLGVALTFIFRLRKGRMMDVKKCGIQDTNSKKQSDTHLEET

Take `Cc1c(COc2cc(OCc3cncc(C#N)c3)c(CNC[C@@H](O)CO)cc2Br)cccc1-c1cccc(COc2cc(OCc3cncc(C#N)c3)c(CNC[C@@H](O)CO)cc2Br)c1C` [Example 257, 5,5′-((((((2,2′-dimethyl-[1,1′-biphenyl]-3,3′-diyl)bis(methylene))bis(oxy))bis(4-bromo-6-((((R)-2,3-dihydroxypropyl)amino)methyl)-3,1-phenylene))bis(oxy))bis(methylene))dinicotinonitrile]: the IC50 on PD-1/PD-L1 was 24 nM. Moreover, at PD-1/PD-L1 interaction, the EC50 amounted to 657 nM.

With `COc1nc(O[C@@H]2c3cccc(-c4cccc5c4C[C@H](F)[C@@H]5Oc4nc(OC)c(CNC[C@@H](O)CC(=O)O)cc4Cl)c3C[C@@H]2F)c(Cl)cc1CNC[C@@H](O)CC(=O)O` [Example 640, (3S,3′S)-4,4′-((((((1R,1′R,2S,2′S)-2,2′-difluoro-2,2′,3,3′-tetrahydro-1H,1′H-[4,4′-biindene]-1,1′-diyl)bis(oxy))bis(5-chloro-2-methoxypyridine-6,3-diyl))bis(methylene))bis(azanediyl))bis(3-hydroxybutanoic acid)], the IC50 on PD-1/PD-L1 was 1.09 nM. For the same compound, on PD-1/PD-L1 interaction, the EC50 was not below 50000 nM.

On to `Cc1c(COc2ccc(CNCCO)cc2)cccc1-c1cccc(COc2cc(OCc3cncc(C#N)c3)c(CNCCO)cc2Cl)c1C` [Example 69, 5-((4-chloro-2-(((2-hydroxyethyl)amino)methyl)-5-((3′-((4-(((2-hydroxyethyl)amino)methyl)phenoxy)methyl)-2,2′-dimethyl-[1,1′-biphenyl]-3-yl)methoxy)phenoxy)methyl)nicotinonitrile], for which the IC50 on PD-1/PD-L1 worked out at 14.2 nM. In addition, the EC50 on PD-1/PD-L1 interaction is 1740 nM.

For `Cc1c(COc2ccc(CNC[C@@H](O)CC(=O)O)c(OCc3cc(C#N)ccc3F)c2)cccc1-c1cccc(COc2ccc(CNC[C@@H](O)CC(=O)O)c(OCc3cc(C#N)ccc3F)c2)c1C` [Example 265, (3S,3′S)-4,4′-((((((2,2′-dimethyl-[1,1′-biphenyl]-3,3′-diyl)bis(methylene))bis(oxy))bis(2-((5-cyano-2-fluorobenzyl)oxy)-4,1-phenylene))bis(methylene))bis(azanediyl))bis(3-hydroxybutanoic acid)], the IC50 on PD-1/PD-L1 is 3.2 nM. The EC50 at PD-1/PD-L1 interaction is 7060 nM.

Consider `COc1cc(OCc2cccc(-c3cccc(COc4nc(OC)c(CNC5(C(=O)O)CCC5)cc4Cl)c3C)c2C)c(Cl)cc1CNC1(C(=O)O)CCC1` [Example 486], for which the IC50 at PD-1/PD-L1 amounted to 0.146 nM. Further, the concentration for a half-maximal effect (EC50) at PD-1/PD-L1 interaction is 112 nM.

For the compound `COC(=O)COc1nc(OCc2cccc(-c3cccc(COc4nc(OCC(=O)OC)c(CNC[C@@H](O)CC(=O)O)cc4Br)c3C)c2C)c(Br)cc1CNC[C@@H](O)CC(=O)O` [Example 150, (3S,3′S)-4,4′-((((((2,2′-dimethyl-[1,1′-biphenyl]-3,3′-diyl)bis(methylene))bis(oxy))bis(5-bromo-2-(2-methoxy-2-oxoethoxy)pyridine-6,3-diyl))bis(methylene))bis(azanediyl))bis(3-hydroxybutanoic acid)], the IC50 on PD-1/PD-L1 was determined as 0.5 nM. In addition, the EC50 on PD-1/PD-L1 interaction was not below 50000 nM.

Turning to `Cc1c(COc2ccc(CNC[C@@H](O)CC(=O)O)cc2)cccc1-c1cccc(COc2cc(OCc3cncc(C#N)c3)c(CNC[C@@H](O)CC(=O)O)cc2Cl)c1C` [Example 17, (S)-4-((4-((3′-((4-((((S)-3-carboxy-2-hydroxypropyl)amino)methyl)-2-chloro-5-((5-cyanopyridin-3-yl)methoxy)phenoxy)methyl)-2,2′-dimethyl-[1,1′-biphenyl]-3-yl)methoxy)benzyl)amino)-3-hydroxybutanoic acid], the IC50 at PD-1/PD-L1 was 0.3 nM. Moreover, the EC50 at PD-1/PD-L1 interaction came out at 1610 nM.

As to `Cc1c(COc2cc(OCc3ccnc(C#N)c3)c(CNC[C@@H](O)CC(=O)O)cc2Cl)cccc1-c1cccc(COc2cc(OCc3ccnc(C#N)c3)c(CNC[C@@H](O)CC(=O)O)cc2Cl)c1C` [Example 219, (3S,3′S)-4,4′-((((((2,2′-dimethyl-[1,1′-biphenyl]-3,3′-diyl)bis(methylene))bis(oxy))bis(5-chloro-2-((2-cyanopyridin-4-yl)methoxy)-4,1-phenylene))bis(methylene))bis(azanediyl))bis(3-hydroxybutanoic acid)], the IC50 at PD-1/PD-L1 was 0.2 nM. For the same compound, the EC50 on PD-1/PD-L1 interaction was 558 nM.

In the case of `Cc1c(COc2nc(OCc3cc(C#N)cc(C#N)c3)c(CNC[C@@H](O)CC(=O)O)cc2Br)cccc1-c1cccc(-c2ccc(OCCNC[C@@H](O)CC(=O)O)cc2)c1C` [Example 515], the IC50 on PD-1/PD-L1 is 0.203 nM. Further, at PD-1/PD-L1 interaction, the EC50 was determined as 95 nM.

As for `Cc1c(COc2ccc(CNC[C@@H](O)CC(=O)O)c(OCc3cncc(C#N)c3)n2)cccc1-c1cccc(COc2ccc(CNC[C@@H](O)CC(=O)O)c(=O)n2Cc2cncc(C#N)c2)c1C` [Example 251, (S)-4-(((6-((3′-(((5-((((S)-3-carboxy-2-hydroxypropyl)amino)methyl)-1-((5-cyanopyridin-3-yl)methyl)-6-oxo-1,6-dihydropyridin-2-yl)oxy)methyl)-2,2′-dimethyl-[1,1′-biphenyl]-3-yl)methoxy)-2-((5-cyanopyridin-3-yl)methoxy)pyridin-3-yl)methyl)amino)-3-hydroxybutanoic acid], the half-maximal inhibitory concentration (IC50) at PD-1/PD-L1 was determined as 2 nM. For the same compound, the EC50 on PD-1/PD-L1 interaction amounted to 25900 nM.

As for `CS(=O)(=O)c1cncc(COc2nc(O[C@H]3CCc4c(-c5cccc6c5CC[C@@H]6Oc5nc(OCc6cncc(S(C)(=O)=O)c6)c(CN6C[C@@H](O)CC6=O)cc5Cl)cccc43)c(Cl)cc2CNC[C@@H](O)CC(=O)O)c1` [Example 693], on PD-1/PD-L1, the IC50 stood at 0.585 nM. On PD-1/PD-L1 interaction, the EC50 was 120 nM.

Take `Cc1c(COc2cc(OCc3cncc(C#N)c3)c(CN3CCCCC3)cc2Cl)cccc1-c1cccc(COc2cc(OCc3cncc(C#N)c3)c(CN3CCCCC3)cc2Cl)c1C` [Example 15, 5,5′-((((((2,2′-dimethyl-[1,1′-biphenyl]-3,3′-diyl)bis(methylene))bis(oxy))bis(4-chloro-6-(piperidin-1-ylmethyl)-3,1-phenylene))bis(oxy))bis(methylene))dinicotinonitrile]: at PD-1/PD-L1, the IC50 was found to be 1250 nM. Moreover, on PD-1/PD-L1 interaction, the EC50 was 5710 nM.

Take `Cc1c(COc2nc(OCc3cncs3)c(CNC[C@@H](O)CC(=O)O)cc2Br)cccc1-c1cccc(COc2nc(OCc3cncs3)c(CNC[C@@H](O)CC(=O)O)cc2Br)c1C` [Example 138, (3S,3′S)-4,4′-((((((2,2′-dimethyl-[1,1′-biphenyl]-3,3′-diyl)bis(methylene))bis(oxy))bis(5-bromo-2-(thiazol-5-ylmethoxy)pyridine-6,3-diyl))bis(methylene))bis(azanediyl))bis(3-hydroxybutanoic acid)]: on PD-1/PD-L1, the IC50 worked out at 1 nM. In addition, the EC50 at PD-1/PD-L1 interaction was determined as 392 nM.

`Cc1c(COc2cc(OCc3cncc(C#N)c3)c(CNC[C@H](O)CO)cc2Br)cccc1-c1cccc(COc2cc(OCc3cncc(C#N)c3)c(CNC[C@H](O)CO)cc2Br)c1C` [Example 259, 5,5′-((((((2,2′-dimethyl-[1,1′-biphenyl]-3,3′-diyl)bis(methylene))bis(oxy))bis(4-bromo-6-((((S)-2,3-dihydroxypropyl)amino)methyl)-3,1-phenylene))bis(oxy))bis(methylene))dinicotinonitrile]: the IC50 on PD-1/PD-L1 is 22.7 nM. In addition, the EC50 at PD-1/PD-L1 interaction was 511 nM.

`Cc1c(COc2cc(OCc3cncc(C#N)c3)c(CNCCCO)cc2Cl)cccc1-c1cccc(COc2cc(OCc3cncc(C#N)c3)c(CNCCCO)cc2Cl)c1C` [Example 73, 5,5′-((((((2,2′-dimethyl-[1,1′-biphenyl]-3,3′-diyl)bis(methylene))bis(oxy))bis(4-chloro-6-(((3-hydroxypropyl)amino)methyl)-3,1-phenylene))bis(oxy))bis(methylene))dinicotinonitrile]: the IC50 on PD-1/PD-L1 stood at 56.1 nM. Also, at PD-1/PD-L1 interaction, the 50% effective concentration (EC50) is 2620 nM.

Regarding `Cc1c(COc2cc(OCc3cccnc3)c(CNCCO)cc2Cl)cccc1-c1cccc(COc2cc(OCc3cccnc3)c(CNCCO)cc2Cl)c1C` [Example 22, 2,2′-((((((2,2′-dimethyl-[1,1′-biphenyl]-3,3′-diyl)bis(methylene))bis(oxy))bis(5-chloro-2-(pyridin-3-ylmethoxy)-4,1-phenylene))bis(methylene))bis(azanediyl))bis(ethan-1-ol)], the half-inhibitory concentration (IC50) at PD-1/PD-L1 worked out at 34.9 nM. Besides, the EC50 at PD-1/PD-L1 interaction came to 2070 nM.

As to `COc1nc(OCc2cccc(-c3cccc(COc4cc(OCc5cncc(C#N)c5)c(CNCCO)cc4Cl)c3C)c2C)ccc1CNCCO` [Example 201, 5-((4-Chloro-2-(((2-hydroxyethyl)amino)methyl)-5-((3′-(((5-(((2-hydroxyethyl)amino)methyl)-6-methoxypyridin-2-yl)oxy)methyl)-2,2′-dimethyl-[1,1′-biphenyl]-3-yl)methoxy)phenoxy)methyl)nicotinonitrile], on PD-1/PD-L1, the IC50 stood at 31.2 nM. Further, the concentration for a half-maximal effect (EC50) on PD-1/PD-L1 interaction is 1110 nM.

On to `Cc1c(COc2ccc(CNC[C@@H](O)CC(=O)O)c(-c3cncc(C#N)c3)c2)cccc1-c1cccc(COc2ccc(CNC[C@@H](O)CC(=O)O)c(-c3cncc(C#N)c3)c2)c1C` [Example 272, (3S,3′S)-4,4′-((((((2,2′-dimethyl-[1,1′-biphenyl]-3,3′-diyl)bis(methylene))bis(oxy))bis(2-(5-cyanopyridin-3-yl)-4,1-phenylene))bis(methylene))bis(azanediyl))bis(3-hydroxybutanoic acid)], for which the IC50 at PD-1/PD-L1 is 2.5 nM. For the same compound, on PD-1/PD-L1 interaction, the EC50 is 37700 nM.
